≈ marks a conversion by molar mass, not a printed value.
Key:
hERG = settings: similar compounds listed by Pred-hERG/LabMol, Fig 9 and Fig 10, reference not given; cited from earlier work
[1] = DPPH radical scavenging method (antioxidant activity); settings: for IC50ug/ml (DPPH scavenging): 0.1 mM DPPH in ethanol, 30 minutes, absorbance 517 nm, triplicate; for IC50: IC50 ug/ml converted with molecular wt
Protocol: The antioxidant activity of the newly synthesized compounds was evaluated using DPPH (2, 2-diphenyl-1-picrylhydrazyl (DPPH) assay). This assay measures the ability of a compound to neutralize the stable free radical DPPH by donating an electron or hydrogen atom. The results are illustrated in Table 2 and Fig 3. All the tests and analyses were undertaken in three replicates, and the results were averaged.
Different compounds’ free radical scavenging activity was measured by 1, 1- diphenyl-2-[…] (DPPH). In brief, a 0.1 mM solution of DPPH in ethanol was prepared. This solution (1 ml) was added to 3 ml. of the different compounds in ethanol at various concentrations (3.9, 7.8, 15.62, 31.25, 62.5, 125, 250, 500, 1000 μg/ml). Here, only those compounds solubilized in ethanol and their various concentrations were prepared by dilution. The mixture was shaken vigorously and allowed to stand at room temperature for 30 minutes. Then, absorbance was measured at 517 nm by using a spectrophotometer (UV-VIS Milton Roy). The reference standard compound used was ascorbic acid, and the experiment was done in triplicate. The IC 50 value of the sample, which is the concentration of sample required to inhibit 50% of the DPPH free radical, was calculated using the Log dose inhibition curve. The lower absorbance of the reaction mixture indicates higher free radical activity. The percent DPPH scavenging effect was calculated using the following equation: DPPH scavenging effect (%), or percent inhibition = A0 - A 1/ A0 × 100. A0 is the absorbance of the control reaction, and A1 is the absorbance in the presence of a test or standard sample [39].

human red blood cells = assay: Hemolytic assay (HRBC membrane stabilization, anti-inflammatory activity); type: cell-based; settings: Conc. 100 ug/ml, 2% RBC, 1 hour 37°C
Protocol: (§1) The hemolysis essay of the synthesized compounds is summarized in Table 3 and Fig 4; the mean absorption rate of the samples, with isotonic solution Ab, and hemolysis % were calculated with a standard deviation. HRBC and membrane stabilization assay results provide valuable information about the potential anti-inflammatory effects of the newly synthesized pyrimidine carbonitrile derivatives. […] The results for the anti-inflammatory activity are in agreement and homogenous with those obtained from the antioxidant activity of the same compounds, as shown in Table 3. The interconnection between inflammation and oxidative stress plays a vital role in the induction of several chronic diseases, such as diabetes, rheumatoid arthritis, and inflammatory bowel disease—inflammation results in the release of inflammatory mediators and, subsequently, tissue damage. Oxidative stress occurs due to an imbalance between the production of the reactive oxygen species and the ability of the body to neutralize them. Several cellular mechanisms are involved in the anti-inflammatory activity of the tested compounds. […] The cellular mechanism of action was detected by suppression of myeloperoxidase and granulocyte superoxide formation. […] In addition, other mechanisms may explain the anti-inflammatory activity through the inhibitory effect on […] and lipo-oxygenase enzymes.
(§2) The hemolytic assay was performed using the method reported in [37, 40, 41]. Freshly collected human red blood cells were washed thrice with 150 mM NaCl (2500 rpm for 10 minutes). The plasma was removed, and the cells were suspended in phosphate buffer saline (pH 7.4) for 2% RBC concentration. Double-folded dilution concentrations (1000, 800, 600, 400, 200, 100, 50 μg/ml) of the compound were mixed with […] of RBC solutions, and the final reaction mixture volume was measured up to 1 ml by adding PBS. The reaction mixture was then placed in the water bath for 1 hour at 37°C. After incubation, the reaction mixture was centrifuged at 2500 rpm for 15 minutes. The supernatant was collected, and the optical density was measured at 541 nm, keeping the phosphate buffer saline blank. Deionized water was used as a positive control. The experiment was carried out in triplicate, and the mean ± SD was calculated.
(§3) Percentageofhemolysis=Absorbanceofsample−Absorbanceofblank×100/Absorbanceofpositivecontrol

[2] = as above; type: cell-based, human; settings: human, human red blood cells, 2% suspension, pH 7.4, 2% RBC, 1 hour 37°C; for hemolysis at 1 h, 100 ug/ml: Conc. 100 ug/ml; for hemolysis at 1 h, 200 ug/ml: Conc. 200 ug/ml; for hemolysis at 1 h, 400 ug/ml: Conc. 400 ug/ml; for hemolysis at 1 h, 600 ug/ml: Conc. 600 ug/ml; for hemolysis at 1 h, 800 ug/ml: Conc. 800 ug/ml; for hemolysis at 1 h, 1000 ug/ml: Conc. 1000 ug/ml
Protocol: as §1, §2, §3

| Compound | IC50ug/ml (DPPH scavenging) [1] | IC50 [1] | hERG Blocker / Non-Blocker annotation of similar compounds (hERG) | Hemolysis % (human red blood cells) | hemolysis at 1 h, 100 ug/ml [2] | hemolysis at 1 h, 200 ug/ml [2] | hemolysis at 1 h, 400 ug/ml [2] | hemolysis at 1 h, 600 ug/ml [2] | hemolysis at 1 h, 800 ug/ml [2] | hemolysis at 1 h, 1000 ug/ml [2] |
| --- | --- | --- | --- | --- | --- | --- | --- | --- | --- | --- |
| Cc1cc(C=C2SC(=Nc3ccccc3)NC2=O)c(C)n1-c1ccccc1 [CHEMBL599702] |  |  | Non-Blocker |  |  |  |  |  |  |  |
| N#Cc1ccc(C2N=C(Nc3nc4ccccc4s3)NC(=O)C2C#N)cc1 (centres unmarked) [Compound 8, 2-(Benzo[d]thiazol-2-ylamino)-4-(4-cyanophenyl)-6-oxo-1,4,5,6-tetrahydro pyrimidine-5-carbonitrile] | 6.21 µg/mL (≈ 16.7 µM) | 16.7 µM |  | no hemolysis | 0% | 0.1% | 0.9% | 1.3% | 3% | 3.7% |
| CC(=O)C1=NN(c2ccccc2)C(=C2SC(=Nc3nc(-c4ccccc4)cc(-c4ccccc4)c3C#N)N(c3ccccc3)C2=O)S1 [CHEMBL3408394] |  |  | Blocker |  |  |  |  |  |  |  |
| N#Cc1ccc(C2N=C(NNc3ccccc3)NC(=O)C2C#N)cc1 (centres unmarked) [Compound 9, 4-(4-Cyanophenyl)-6-oxo-2-(2-phenylhydrazine)-1,4,5,6-tetrahydro pyrimidine-5-carbonitrile] | 212.28 µg/mL (≈ 643 µM) | 643 µM |  |  | 2.9% | 4.3% | 5% | 9% | 10% | 14.4% |
| CCOC(=O)C1=NN(c2ccccc2)C(=C2SC(=Nc3nc(-c4ccccc4)cc(-c4ccccc4)c3C#N)N(c3ccccc3)C2=O)S1 [CHEMBL3408395] |  |  | Blocker |  |  |  |  |  |  |  |
| O=C1O[C@H]([C@@H](O)CO)C(O)=C1O [Ascorbic acid, reference compound] | 4.63 µg/mL (≈ 26.3 µM) | 26.3 µM |  |  |  |  |  |  |  |  |
| N#Cc1c(-c2ccccc2)cc(-c2ccccc2)nc1N=C1SC(=C2SC(c3ccccc3)=NN2c2ccccc2)C(=O)N1c1ccccc1 [CHEMBL3408393] |  |  | Blocker |  |  |  |  |  |  |  |
| N#Cc1c(-c2ccccc2)cc(-c2ccccc2)nc1N=C1SC(=C2SC(C(=O)Nc3ccccc3)=NN2c2ccccc2)C(=O)N1c1ccccc1 [CHEMBL3408396] |  |  | Blocker |  |  |  |  |  |  |  |
| N#Cc1ccc(C2N=C3SCC=C(N)N3C(=O)C2C#N)cc1 (centres unmarked) [Compound 5, 4-Amino-8-(4-cyanophenyl)-6-oxo-7,8-dihydro-2H,6H-pyrimido[2,1-b][1,3]thiazine-7-carbonitrile] | 5.62 µg/mL (≈ 18.2 µM) | 18.2 µM |  |  | 0.2% | 0.4% | 1.4% | 5.5% | 5.9% | 7% |
| N#Cc1c(-c2ccccc2)cc(-c2ccccc2)nc1N=c1sc(C(=O)Nc2ccccc2)nn1-c1ccccc1 [CHEMBL3408390] |  |  | Blocker |  |  |  |  |  |  |  |

Further lines, with some results ahead:

| IC50ug/ml (DPPH scavenging) [1] | IC50 [1] | Compound | hERG Blocker / Non-Blocker annotation of similar compounds (hERG) | Hemolysis % (human red blood cells) | hemolysis at 1 h, 100 ug/ml [2] | hemolysis at 1 h, 200 ug/ml [2] | hemolysis at 1 h, 400 ug/ml [2] | hemolysis at 1 h, 600 ug/ml [2] | hemolysis at 1 h, 800 ug/ml [2] | hemolysis at 1 h, 1000 ug/ml [2] |
| --- | --- | --- | --- | --- | --- | --- | --- | --- | --- | --- |
| 35.9 µg/mL (≈ 122 µM) | 122 µM | N#CCSC1=NC(c2ccc(C#N)cc2)C(C#N)C(=O)N1 (centres unmarked) [Compound 3, 2-((Cyanomethyl)thio)-4-(4-cyanophenyl)-6-oxo-1,4,5,6-trtrahydropyrimidine-5-carbonitrile] |  |  | 0.1% | 0.3% | 0.7% | 1.2% | 2.3% |  |
| 25.13 µg/mL (≈ 98.1 µM) | 98.1 µM | N#Cc1ccc(C2NC(=S)NC(=O)C2C#N)cc1 (centres unmarked) [Compound 1, 4-(4-cyanophenyl)-6-oxo-2-thioxohexahydropyrimidine-5-carbonitrile] |  |  | 7.5% | 9.5% | 12% | 12.4% | 13.2% | 13.9% |
| 46.69 µg/mL (≈ 158 µM) |  | N#Cc1ccc(C2N=C3SCC(=O)N3C(=O)C2C#N)cc1 (centres unmarked) [Compound 6, 7-(4-Cyanophenyl)-3,5-dioxo-2,3,6,7-tetrahydro-5H-thiazolo[3,2-a]pyrimidine-6-carbonitrile] |  |  | 2.1% | 3.1% | 4% | 4.6% | 12.8% | 14.3% |
| 10.09 µg/mL (≈ 37.3 µM) |  | CSC1=NC(c2ccc(C#N)cc2)C(C#N)C(=O)N1 (centres unmarked) [Compound 2, 4-(4-Cyanophenyl)-2-(methylthio)-6-oxo-1,4,5,6-tetrahydro pyrimidine-5-carbonitrile] |  | no hemolysis | 0% | 0.1% | 0.1% | 0.3% | 0.3% | 2.2% |
| 35.31 µg/mL (≈ 113 µM) | 113 µM | CC(=O)CSC1=NC(c2ccc(C#N)cc2)C(C#N)C(=O)N1 (centres unmarked) [Compound 4, 4-(4-Cyanophenyl)-6-oxo-2-((2-oxo-propyl)thio)-1,4,5,6-tetrahydro-pyrimidine-5-carbonitrile] |  |  | 1.3% | 1.8% | 3.6% | 5.9% | 7.8% | 9.3% |

From article PMC12121771, “Innovation of eco-friendly TiO2 nano catalyst for new pyrimidine carbonitiriles candidates, assessed for significant antioxidant activity, anti-inflammatory effects, and by insilico studies” (PLOS One, 2025)
